According to publication PMC6433934, “Preclinical Evaluation of Bispecific Adaptor Molecule Controlled Folate Receptor CAR-T Cell Therapy With Special Focus on Pediatric Malignancies” (Frontiers in Oncology, 2019):

Test system: HOS-FRα tumor-bearing mice
Assay: Toxicity and CRS rescue with sodium fluorescein
Type: in vivo
Settings: sodium fluorescein i.v. ~95 mg/kg, severe CRS, 35 million total CAR-T cells (93:7 CD4/CD8), plasma 6 h later
Experimental: Depending on the CAR-T cell dose and how EC17 is administered, tumor-bearing mice receiving FITC-specific CAR-T cells can experience severe CRS and varying degrees of body weight loss ([27], [33], [34]). Therefore, we developed a CRS grading system (0–5 scale) to empirically assess CRS toxicity from animals' gross morphology and social behavior to allow for better timing of CRS rescue. While grades 0 and 5 indicated normal (no CRS) or death (due to severe CRS), respectively, grades 1, 2, and 3–4 were considered mild, light-to-moderate, and severe CRS. In addition, all EC17 doses were intentionally given toward the end of any given day to allow potential CRS symptoms to develop overnight. On the days immediately following each EC17 dose, animals were scored and rescue agents such as sodium fluorescein, folic acid and leucovorin were used to mitigate CRS toxicity ([33]). In this particular instance, a batch of E2-CAR-T cells with a high EGFRt+ CD4/CD8 ratio (~93:7) was given to HOS-FRα tumor-bearing mice at a mixture of ~2.5 million CD8 and ~33 million CD4 on day 0. When EC17 was dosed, respectively, at 500, 100, and 500 nmol/kg on days 3, 10, and 12, low CRS (grades 1–2) was noted on days 4 and 11 but high CRS (grade 3) was noted on day 13. To mitigate the severe CRS toxicity, sodium fluorescein was intravenously administrated at ~96 mg/kg in the morning of day 13 and mouse plasma samples were collected 6 h later for analysis of CRS-associated cytokines.

O=C([O-])c1ccccc1-c1c2ccc(=O)cc-2oc2cc([O-])ccc12.[Na+].[Na+] [sodium fluorescein, reference compound] was tested, and the “CAR-T cell derived human cytokines after CRS rescue” value was “acted very quickly to reduce CAR-T cell derived human cytokines”.
